The source of these data is US10266525B2, “Processes for preparing 2-(6-(1H-indol-4-yl)-1H-indazol-4-yl)-5-((4-isopropylpiperazin-1-yl)methyl)oxazole” (GlaxoSmithKline Intellectual Property Development Limited, priority 2015, dated 2019).

A short description of series [1]: solubility in simulated lung fluid. The class given is physicochemical.
A further series is described as follows: hygroscopicity. The series is classed as physicochemical.

For the compound `CC(C)N1CCN(Cc2cnc(-c3cc(-c4cccc5[nH]ccc45)cc4[nH]ncc34)o2)CC1.O=C(O)c1ccccc1` [benzoate salt of Compound A, 2-(6-(1H-Indol-4-yl)-1H-indazol-4-yl)-5-((4-isopropylpiperazin-1-yl)methyl)oxazole benzoate], the “solubility in simulated lung fluid” value in series [1] was “suitable”. In “hygroscopicity”, the hygroscopicity result is on record as “suitable”.
